The record followed here is ChEMBL document CHEMBL1127781, “Antitumor agents. 7. Synthesis and antitumor activity of novel hexacyclic camptothecin analogues” (J Med Chem, 1994).

The structures appear in SMILES notation. In brackets after ≈: the same amount, converted by molar mass. Bounds are passed on as bounds.

The test system of assay [1] is P388. Kind of assay: Tested in vitro for the inhibition of P388 (mouse leukemia) cell line by MTT assay. Format: functional, cell-based.
For a further assay, the system named is HOC-21 cell line. Description: Tested in vitro for the inhibition of HOC-21(human ovarian cancer) cell line by MTT assay. Format: functional, cell-based. In general terms: Tetrazolium dyes change colour on reduction, which living cells bring about.
Another assay concerns QG-56. Kind of assay: Tested in vitro for the inhibition of QG-56 (human lung squamous cell carcinoma) cell line by MTT assay. Format: functional, cell-based.
The test system of assay [2] is Mus musculus. Kind of assay: Tested for (median survival time of treated/control animals) x100 at dosage of 120 mg/kg. Format: functional.
The test system of assay [3] is Mus musculus. Kind of assay: Tested for (median survival time of treated/control animals) x100 at dosage of 60 mg/kg. Format: functional.
In assay [4] the test system is Mus musculus. Kind of assay: Tested for (median survival time of treated/control animals) x100 at dosage of 240 mg/kg. Format: functional.
Assay [5] in a line: Tested for (median survival time of treated/control animals) x100 at dosage of 480 mg/kg. Format: functional.
Assay [6] can be described thus: Tested for (median survival time of treated/control animals) x100 at dosage of 30 mg/kg. Format: functional.
A short description of assay [7]: Tested for median survival time of treated/control animals) x100 at dosage of 240 mg/kg. Format: functional.
Assay [8] can be described thus: Tested for median survival time of treated/control animals) x100 at dosage of 120 mg/kg. Format: functional.
Assay [9] is described as follows: Tested for median survival time of treated/control animals) x100 at dosage of 30 mg/kg. Format: functional.
Assay [10] can be described thus: Tested for median survival time of treated/control animals) x100 at dosage of 60 mg/kg. Format: functional.
Assay [11] is described as follows: Tested for median survival time of treated/control animals) x100 at dosage of 480 mg/kg. Format: functional.
Assay [12] can be described thus: Tested for (median survival time of treated/control animals) x100 at dosage of 60 mg/kg. Format: functional.
Assay [13] is described as follows: Tested for (median survival time of treated/control animals) x100 at dosage of 240 mg/kg. Format: functional.
Assay [14] can be described thus: Tested for (median survival time of treated/control animals) x100 at dosage of 120 mg/kg. Format: functional.
The nature of assay [15]: Tested for (median survival time of treated/control animals) x100 at dosage of 30 mg/kg. Format: functional.
The subject of assay [16] is P388. Description: Tested in vitro for the inhibition of P388 (mouse leukemia) cell line by MTT assay; 1.95-6.93 ng/mL. Format: functional, cell-based.

Consider `CCC1(O)C(=O)OCc2c1cc1n(c2=O)Cc2c-1nc1cccc(CN)c1c2C` (stereo not given), for which the IC50 (usually the concentration that gives 50% inhibition) in the assay with P388 [1] came to 5.02 ng/mL (≈ 0.0128 µM); in the assay with HOC-21 cell line, 44.8 ng/mL (≈ 0.114 µM); in the assay with QG-56, 6.36 ng/mL (≈ 0.0162 µM).
Regarding `CCC1(O)C(=O)OCc2c1cc1n(c2=O)Cc2c-1nc1cccc(COC(C)=O)c1c2COC(C)=O` (stereo not given), the half-maximal inhibitory concentration (IC50) is 40.5 ng/mL (≈ 0.0822 µM) in the assay with P388 [1], > 500 ng/mL with HOC-21 cell line and 7.41 ng/mL (≈ 0.015 µM) with QG-56.
For the compound `CC[C@@]1(O)C(=O)OCc2c1cc1n(c2=O)Cc2c-1nc1cccc3c1c2CNC3`, the values for the IC50 in the assay on P388 [1], with HOC-21 cell line and with QG-56 were 3.39 ng/mL (≈ 0.00871 µM), 37.8 ng/mL (≈ 0.0969 µM) and 2.98 ng/mL (≈ 0.00765 µM), respectively.
Taken in the same sequence, the figures for `CC[C@@]1(O)C(=O)OCc2c1cc1n(c2=O)Cc2c-1nc1ccc(C)c3c1c2CCC3` were 0.78 ng/mL (≈ 0.00194 µM), 5.88 ng/mL (≈ 0.0146 µM) and 0.68 ng/mL (≈ 0.00169 µM).
With `CC[C@@]1(O)C(=O)OCc2c1cc1n(c2=O)Cc2c-1nc1cccc3c1c2CCCC3`, the figures for the IC50 in the assay with P388 [1], with HOC-21 cell line and with QG-56 were 1.22 ng/mL (≈ 0.00303 µM), 15.6 ng/mL (≈ 0.0388 µM) and 1.73 ng/mL (≈ 0.0043 µM), respectively.
Take `CC[C@@]1(O)C(=O)OCc2c1cc1n(c2=O)Cc2c-1nc1cccc3c1c2COC3`: the figures for the IC50 with P388 [1], in the assay on HOC-21 cell line and with QG-56 were 0.95 ng/mL (≈ 0.00243 µM), 12.3 ng/mL (≈ 0.0315 µM) and 1.14 ng/mL (≈ 0.00292 µM), respectively.
The corresponding values for `CC[C@@]1(O)C(=O)OCc2c1cc1n(c2=O)Cc2c-1nc1cccc(C)c1c2C` are 3.76 ng/mL (≈ 0.00999 µM), > 500 ng/mL and 0.6 ng/mL (≈ 0.00159 µM).
Taken in the same sequence, the figures for `CC[C@@]1(O)C(=O)OCc2c1cc1n(c2=O)Cc2c-1nc1ccc(O)c3c1c2CCC3` were 1.6 ng/mL (≈ 0.00396 µM), 12.6 ng/mL (≈ 0.0312 µM) and 0.26 ng/mL (≈ 0.000643 µM).
With `CCC1(O)C(=O)OCc2c1cc1n(c2=O)Cc2c-1nc1ccc(O)c3c1c2CCO3` (racemic), the T/C (in general, the result in the treated group divided by that in the control group, in per cent) was determined as 233% in the assay with Mus musculus [2]; 221% with Mus musculus [3]; 20% in the assay on Mus musculus [4]; 19% in [5]; 147% in assay [6]. The IC50 in the assay on HOC-21 cell line was 79 ng/mL (≈ 0.194 µM); in the assay on QG-56, 1.1 ng/mL (≈ 0.00271 µM).
Turning to `CCC1(O)C(=O)OCc2c1cc1n(c2=O)Cc2c-1nc1ccc(O)c3c1c2CCC3` (racemic), the IC50 with P388 [1] is 3.8 ng/mL (≈ 0.0094 µM); in the assay on HOC-21 cell line, 26.4 ng/mL (≈ 0.0653 µM); in the assay on QG-56, 0.5 ng/mL (≈ 0.00124 µM). In addition, the T/C is on record as >392% in [7]; 354% in assay [8]; 182% in assay [9]; 201% in [10]; 88.5% in assay [11].
Turning to `CCC1(O)C(=O)OCc2c1cc1n(c2=O)Cc2c-1nc1ccc(O)c3c1c2CC3` (racemic), the IC50 with P388 [1] turned out to be 2.22 ng/mL (≈ 0.00569 µM); in the assay on HOC-21 cell line it was 15.9 ng/mL (≈ 0.0407 µM); in the assay on QG-56, 1.25 ng/mL (≈ 0.0032 µM). Also, the T/C with Mus musculus [2] was 110%; with Mus musculus [3], 206%; in the assay with Mus musculus [4] it was 90.9%; in assay [5] it was 78.2%; in assay [6], 167%.
Turning to `CCC1(O)C(=O)OCc2c1cc1n(c2=O)Cc2c-1nc1ccc(C)c3c1c2CCO3` (racemic), the results for the IC50 in the assay on P388 [1], with HOC-21 cell line and in the assay with QG-56 were 4.5 ng/mL (≈ 0.0111 µM), 41.9 ng/mL (≈ 0.104 µM) and 1.38 ng/mL (≈ 0.00341 µM), respectively. The T/C in the assay on Mus musculus [2] was 273%; with Mus musculus [3] it was 260%; in the assay on Mus musculus [4], 376%; in assay [5], >376%.
Consider `CCC1(O)C(=O)OCc2c1cc1n(c2=O)Cc2cc3ccccc3nc2-1` (racemic), for which the T/C was 128% in assay [12], 163% in assay [13], 148% in assay [14] and 128% in [15].
For the compound `CCC1(O)C(=O)OCc2c1cc1n(c2=O)Cc2c-1nc1ccc(C)c3c1c2CCN3` (racemic), the T/C in the assay with Mus musculus [2] is 207%; with Mus musculus [4], 174%; in assay [5], 180%. Besides, the IC50 in the assay with HOC-21 cell line worked out at 41.8 ng/mL (≈ 0.104 µM); in the assay with QG-56, 1.68 ng/mL (≈ 0.00416 µM).
As to `CCC1(O)C(=O)OCc2c1cc1n(c2=O)Cc2c-1nc1ccc(C)c3c1c2CCS3` (racemic), the half-maximal inhibitory concentration (IC50) in the assay on P388 [1] amounted to 3.77 ng/mL (≈ 0.00897 µM); in the assay on HOC-21 cell line it was 35.8 ng/mL (≈ 0.0851 µM); with QG-56, 3.36 ng/mL (≈ 0.00799 µM). In addition, the T/C is listed as 293% in the assay with Mus musculus [2]; 224% with Mus musculus [3]; 290% in assay [7]; 205% in [6]; >400% in assay [11].
Turning to `CCc1c2c(nc3ccc(O)cc13)-c1cc3c(c(=O)n1C2)COC(=O)[C@]3(O)CC` [7-ETHYL-10-HYDROXYCAMPTOTHECIN], the T/C in the assay on Mus musculus [2] is on record as 258%; with Mus musculus [3] it was 191%; in the assay on Mus musculus [4] it was 67%; in assay [6] it was 146%. For the same compound, the concentration for half-maximal inhibition (IC50) in the assay with P388 [16] was 6.93 ng/mL (≈ 0.0177 µM); in the assay with HOC-21 cell line, 123 ng/mL (≈ 0.314 µM); in the assay with QG-56 it was 3.17 ng/mL (≈ 0.00808 µM).
As to `CC[C@@]1(O)C(=O)OCc2c1cc1n(c2=O)Cc2cc3ccccc3nc2-1` [CAMPTOTHECIN], the half-maximal inhibitory concentration (IC50) in the assay with P388 [1] stood at 4.74 ng/mL (≈ 0.0136 µM); in the assay on HOC-21 cell line, 14.7 ng/mL (≈ 0.0422 µM); with QG-56 it was 4.63 ng/mL (≈ 0.0133 µM). Besides, the T/C in [12] came out at 142%; in assay [13], 144%; in assay [14], 176%; in [15], 130%.
